Assay results taken from the NIST ThermoML archive (doi:10.1021/acs.jced.7b00035).
“And” between values parts separate entries of the source, which are not always exact repeats. Identical values can stand only once.

What was measured:
[1] = xn = mol fraction of the nth substance listed; conditions: 100 kPa, Liquid, Vibrating tube method
[2] = excess molar enthalpy (molar enthalpy of mixing); xn = mol fraction of the nth substance listed; conditions: 100 kPa, Liquid, Flow calorimetry

CC(=O)CC(C)C [4-methylpentan-2-one] + O
Conditions | excess molar enthalpy, [2] | mass density, [1]
288.15 K, x1 = 0.000573 | -0.00173 kcal/mol | 998.669 kg/m3
288.15 K, x1 = 0.000574 | -0.00174 kcal/mol | 998.655 kg/m3
288.15 K, x1 = 0.00086 | – | 998.405 kg/m3 and 998.422 kg/m3
288.15 K, x1 = 0.001146 | -0.00341 kcal/mol | 998.224 kg/m3
288.15 K, x1 = 0.001147 | -0.00344 kcal/mol | 998.21 kg/m3
288.15 K, x1 = 0.001432 | -0.00429 kcal/mol | 997.995 kg/m3
288.15 K, x1 = 0.001434 | -0.00425 kcal/mol | 998.001 kg/m3
288.15 K, x1 = 0.001718 | -0.00512 kcal/mol | 997.779 kg/m3
288.15 K, x1 = 0.00172 | -0.00508 kcal/mol | 997.788 kg/m3
288.15 K, x1 = 0.002004 | -0.00591 kcal/mol | 997.592 kg/m3
288.15 K, x1 = 0.002006 | -0.00591 kcal/mol | 997.567 kg/m3
298.15 K, x1 = 0.000574 | -0.00135 kcal/mol and -0.00134 kcal/mol | 996.572 kg/m3 and 996.58 kg/m3
298.15 K, x1 = 0.00086 | -0.002 kcal/mol | 996.345 kg/m3
298.15 K, x1 = 0.000861 | -0.00203 kcal/mol | 996.319 kg/m3
298.15 K, x1 = 0.001146 | -0.00269 kcal/mol | 996.114 kg/m3
298.15 K, x1 = 0.001148 | -0.00271 kcal/mol | 996.078 kg/m3
298.15 K, x1 = 0.001433 | -0.0033 kcal/mol | 995.875 kg/m3
298.15 K, x1 = 0.001435 | -0.00335 kcal/mol | 995.871 kg/m3
298.15 K, x1 = 0.001718 | -0.00394 kcal/mol | 995.624 kg/m3
298.15 K, x1 = 0.001721 | -0.00397 kcal/mol | 995.64 kg/m3
298.15 K, x1 = 0.002004 | -0.00459 kcal/mol | 995.417 kg/m3
298.15 K, x1 = 0.002007 | -0.00455 kcal/mol | 995.402 kg/m3
308.15 K, x1 = 0.000573 | -0.000968 kcal/mol | 993.534 kg/m3 and 993.533 kg/m3
308.15 K, x1 = 0.000859 | -0.00147 kcal/mol | 993.283 kg/m3 and 993.282 kg/m3
308.15 K, x1 = 0.001145 | -0.00193 kcal/mol and -0.00192 kcal/mol | 993.03 kg/m3 and 993.053 kg/m3
308.15 K, x1 = 0.001431 | -0.00239 kcal/mol and -0.00238 kcal/mol | 992.791 kg/m3 and 992.795 kg/m3
308.15 K, x1 = 0.001716 | -0.00285 kcal/mol | 992.542 kg/m3
308.15 K, x1 = 0.001717 | -0.00288 kcal/mol | 992.525 kg/m3
308.15 K, x1 = 0.002002 | -0.0033 kcal/mol | 992.3 kg/m3
308.15 K, x1 = 0.002003 | -0.0033 kcal/mol | 992.285 kg/m3
318.15 K, x1 = 0.000573 | -0.000982 kcal/mol and -0.000633 kcal/mol | –
318.15 K, x1 = 0.000859 | -0.00093 kcal/mol and -0.000918 kcal/mol | 989.411 kg/m3 and 989.421 kg/m3
318.15 K, x1 = 0.001145 | -0.00122 kcal/mol | 989.156 kg/m3
318.15 K, x1 = 0.001146 | -0.00122 kcal/mol | 989.147 kg/m3
318.15 K, x1 = 0.001431 | -0.00149 kcal/mol | 988.905 kg/m3
318.15 K, x1 = 0.001432 | -0.00148 kcal/mol | 988.91 kg/m3
318.15 K, x1 = 0.001717 | -0.00179 kcal/mol | 988.633 kg/m3
318.15 K, x1 = 0.001718 | -0.00178 kcal/mol | 988.636 kg/m3
318.15 K, x1 = 0.002003 | -0.00204 kcal/mol | 988.402 kg/m3
318.15 K, x1 = 0.002004 | -0.00202 kcal/mol | 988.379 kg/m3

CC(=O)C(C)C [3-methyl-2-butanone] + O
Conditions | excess molar enthalpy, [2] | mass density, [1]
288.15 K, x1 = 0.000837 | -0.0025 kcal/mol | 998.559 kg/m3 and 998.558 kg/m3
288.15 K, x1 = 0.001672 | -0.00495 kcal/mol and -0.00497 kcal/mol | 998.026 kg/m3 and 998.025 kg/m3
288.15 K, x1 = 0.002505 | -0.00739 kcal/mol | 997.502 kg/m3
288.15 K, x1 = 0.002506 | -0.0074 kcal/mol | 997.502 kg/m3
288.15 K, x1 = 0.003337 | -0.00974 kcal/mol | 996.996 kg/m3
288.15 K, x1 = 0.003339 | -0.00976 kcal/mol | 996.993 kg/m3
288.15 K, x1 = 0.004168 | -0.0121 kcal/mol | 996.494 kg/m3
288.15 K, x1 = 0.004171 | -0.0121 kcal/mol | 996.488 kg/m3
288.15 K, x1 = 0.004998 | -0.0145 kcal/mol | 995.988 kg/m3
288.15 K, x1 = 0.005001 | -0.0144 kcal/mol | 996 kg/m3
298.15 K, x1 = 0.000836 | -0.00207 kcal/mol | 996.47 kg/m3
298.15 K, x1 = 0.001671 | -0.00411 kcal/mol | 995.897 kg/m3
298.15 K, x1 = 0.001672 | -0.00411 kcal/mol | 995.899 kg/m3
298.15 K, x1 = 0.002505 | -0.00612 kcal/mol and -0.00606 kcal/mol | 995.337 kg/m3 and 995.348 kg/m3
298.15 K, x1 = 0.003337 | -0.00802 kcal/mol and -0.00799 kcal/mol | 994.799 kg/m3 and 994.805 kg/m3
298.15 K, x1 = 0.004166 | -0.00989 kcal/mol | 994.261 kg/m3
298.15 K, x1 = 0.004168 | -0.00994 kcal/mol | 994.254 kg/m3
298.15 K, x1 = 0.004994 | -0.0118 kcal/mol | 993.729 kg/m3
298.15 K, x1 = 0.004998 | -0.0118 kcal/mol | 993.722 kg/m3
308.15 K, x1 = 0.000836 | -0.00164 kcal/mol | 993.424 kg/m3
308.15 K, x1 = 0.000837 | -0.00163 kcal/mol | 993.426 kg/m3
308.15 K, x1 = 0.001672 | -0.00322 kcal/mol and -0.00323 kcal/mol | 992.827 kg/m3 and 992.824 kg/m3
308.15 K, x1 = 0.002504 | -0.00478 kcal/mol | 992.235 kg/m3
308.15 K, x1 = 0.002506 | -0.00482 kcal/mol | 992.224 kg/m3
308.15 K, x1 = 0.003336 | -0.00632 kcal/mol | 991.647 kg/m3
308.15 K, x1 = 0.00334 | -0.00634 kcal/mol | 991.646 kg/m3
308.15 K, x1 = 0.004167 | -0.00783 kcal/mol | 991.064 kg/m3
308.15 K, x1 = 0.004171 | -0.00781 kcal/mol | 991.067 kg/m3
308.15 K, x1 = 0.005001 | -0.00926 kcal/mol | 990.494 kg/m3
318.15 K, x1 = 0.000836 | -0.00121 kcal/mol | 989.576 kg/m3 and 989.578 kg/m3
318.15 K, x1 = 0.00167 | -0.00239 kcal/mol | 988.947 kg/m3
318.15 K, x1 = 0.001671 | -0.00239 kcal/mol | 988.945 kg/m3
318.15 K, x1 = 0.002338 | -0.0033 kcal/mol | 988.447 kg/m3
318.15 K, x1 = 0.002505 | -0.00353 kcal/mol | 988.318 kg/m3
318.15 K, x1 = 0.003336 | -0.00465 kcal/mol | 987.702 kg/m3
318.15 K, x1 = 0.003337 | -0.00465 kcal/mol | 987.696 kg/m3
318.15 K, x1 = 0.004167 | -0.00571 kcal/mol | 987.091 kg/m3
318.15 K, x1 = 0.004168 | -0.00573 kcal/mol | 987.083 kg/m3
318.15 K, x1 = 0.004997 | -0.00677 kcal/mol | 986.477 kg/m3
318.15 K, x1 = 0.004998 | -0.00677 kcal/mol | 986.481 kg/m3
